Measured values taken from ChEMBL document CHEMBL1201862, “PubChem BioAssay data set” (2004).
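Values below derive from 48-hour exposures of cells grown in 96-well plates, with endpoints linearly interpolated between the two concentrations bracketing the appropriate inhibition level. GI50 = concentration required for 50% inhibition of growth.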 Activity calls are given as the source filed them. Rule as the data show it: active = GI50 up to about 1.1 µM and inactive = higher.

Assays:
Test in all cases: growth of human tumour cells (NCI), 48 h
CAKI-1 = tested on: CAKI-1
OVCAR-4 = tested on: OVCAR-4
TK-10 = tested on: TK-10
RXF 393 = tested on: RXF 393
BT-549 = tested on: BT-549
CCRF-CEM = tested on: CCRF-CEM
NCI-H23 = tested on: NCI-H23
IGROV-1 = tested on: IGROV-1
SNB-19 = tested on: SNB-19
LOX IMVI = tested on: LOX IMVI
MOLT-4 = tested on: MOLT-4
786-0 = tested on: 786-0
ACHN = tested on: ACHN
UACC-62 = tested on: UACC-62
HCT-116 = tested on: HCT-116
A549 = tested on: A549
M14 = tested on: M14
SR = tested on: SR
K562 = tested on: K562
T47D = tested on: T47D

Measured: GI50

O=C(O)CSCC(=O)O
inactive: CAKI-1 > 100 µM | OVCAR-4 > 100 µM | TK-10 > 100 µM | RXF 393 > 100 µM | BT-549 > 100 µM | CCRF-CEM > 100 µM | NCI-H23 > 100 µM | IGROV-1 > 100 µM | SNB-19 > 100 µM | LOX IMVI > 100 µM | MOLT-4 > 100 µM | 786-0 > 100 µM | ACHN > 100 µM | UACC-62 > 100 µM | HCT-116 > 100 µM | A549 > 100 µM | M14 > 100 µM | SR > 100 µM | K562 > 100 µM

O=C(c1ccc(Cl)cc1)N(C(=S)OCCOc1ccccc1)c1ccccc1
inactive: CAKI-1 17.4 µM | OVCAR-4 18.6 µM | TK-10 29.4 µM | RXF 393 18.6 µM | BT-549 20.2 µM | CCRF-CEM 13.7 µM | NCI-H23 18.1 µM | IGROV-1 16.9 µM | T47D 20 µM | SNB-19 19.2 µM | LOX IMVI 17.4 µM | MOLT-4 22.4 µM | 786-0 18.7 µM | ACHN 20.3 µM | UACC-62 16.3 µM | HCT-116 16.2 µM | A549 16.3 µM | M14 16.1 µM | K562 30.4 µM

CC1=C(O)C(=O)C[C@]2(C)[C@H]3CC=C4[C@@H]5CC(C)(C)CC[C@@H]5C(=O)[C@H](O)[C@@]4(C)[C@]3(C)CC[C@@H]12
inactive: CAKI-1 > 50 µM | OVCAR-4 40.4 µM | TK-10 23.9 µM | RXF 393 10 µM | BT-549 > 50 µM | CCRF-CEM > 50 µM | NCI-H23 > 50 µM | IGROV-1 21.8 µM | T47D > 50 µM | SNB-19 > 50 µM | MOLT-4 > 50 µM | 786-0 19.1 µM | ACHN 41.4 µM | UACC-62 > 50 µM | HCT-116 > 50 µM | A549 24.8 µM | M14 > 50 µM

COc1ccc(OCC(=N/NC(=O)c2ccncc2)/N=C/c2cccnc2)cc1
inactive: CAKI-1 > 100 µM | OVCAR-4 96.6 µM | TK-10 > 100 µM | RXF 393 35.8 µM | BT-549 > 100 µM | CCRF-CEM > 100 µM | NCI-H23 > 100 µM | IGROV-1 > 100 µM | T47D > 100 µM | SNB-19 > 100 µM | LOX IMVI 89.7 µM | MOLT-4 69.8 µM | 786-0 > 100 µM | ACHN 72.8 µM | UACC-62 43.4 µM | HCT-116 > 100 µM | A549 92.9 µM | M14 60.5 µM | K562 44.7 µM

CN(c1ccccc1Cl)S(=O)(=O)c1ccccc1
inactive: CAKI-1 > 100 µM | OVCAR-4 > 100 µM | TK-10 > 100 µM | BT-549 56.2 µM | CCRF-CEM > 100 µM | NCI-H23 54.5 µM | IGROV-1 > 100 µM | SNB-19 > 100 µM | LOX IMVI > 100 µM | MOLT-4 45 µM | 786-0 > 100 µM | ACHN > 100 µM | UACC-62 > 100 µM | HCT-116 82.4 µM | A549 > 100 µM | M14 > 100 µM | SR 55.8 µM | K562 51.8 µM

O=[As](O)(O)c1ccc(/N=N/c2ccc(O)cc2)cc1
inactive: CAKI-1 > 100 µM | OVCAR-4 > 100 µM | TK-10 > 100 µM | RXF 393 > 100 µM | BT-549 > 100 µM | CCRF-CEM > 100 µM | NCI-H23 > 100 µM | IGROV-1 > 100 µM | T47D > 100 µM | SNB-19 > 100 µM | LOX IMVI > 100 µM | MOLT-4 4.32 µM | 786-0 > 100 µM | ACHN > 100 µM | UACC-62 > 100 µM | HCT-116 > 100 µM | A549 > 100 µM | M14 > 100 µM | K562 5.69 µM

CCOC(=O)C1=C(N2CCCC2)NC(=O)CC1=O
inactive: CAKI-1 > 100 µM | OVCAR-4 > 100 µM | TK-10 > 100 µM | RXF 393 > 100 µM | CCRF-CEM > 100 µM | NCI-H23 > 100 µM | IGROV-1 > 100 µM | T47D 63 µM | SNB-19 > 100 µM | LOX IMVI > 100 µM | MOLT-4 > 100 µM | 786-0 > 100 µM | ACHN > 100 µM | UACC-62 > 100 µM | HCT-116 > 100 µM | A549 > 100 µM | M14 > 100 µM | SR > 100 µM | K562 > 100 µM

N#Cc1c2c(c(Nc3cccc(C(F)(F)F)c3)n3c1nc1ccccc13)CCCC2
inactive: CAKI-1 22.5 µM | OVCAR-4 13.9 µM | TK-10 16.3 µM | RXF 393 22.7 µM | BT-549 30.1 µM | NCI-H23 20.9 µM | T47D > 100 µM | LOX IMVI 14.8 µM | MOLT-4 15.2 µM | 786-0 13.1 µM | ACHN 27.3 µM | HCT-116 22.3 µM

Nc1ncnc2c1ccn2C/C=C/CO
inactive: CAKI-1 > 100 µM | OVCAR-4 > 100 µM | TK-10 > 100 µM | RXF 393 > 100 µM | BT-549 > 100 µM | CCRF-CEM > 100 µM | NCI-H23 > 100 µM | IGROV-1 > 100 µM | T47D > 100 µM | SNB-19 > 100 µM | LOX IMVI > 100 µM | MOLT-4 > 100 µM | 786-0 > 100 µM | ACHN > 100 µM | UACC-62 > 100 µM | HCT-116 > 100 µM | A549 > 100 µM | M14 > 100 µM | K562 > 100 µM

COc1ccc2cc3c4cc5c(cc4cc[n+]3cc2c1OC)OCO5
inactive: OVCAR-4 20.6 µM | TK-10 19.9 µM | RXF 393 24.4 µM | BT-549 1.63 µM | CCRF-CEM 6.43 µM | NCI-H23 8.09 µM | IGROV-1 8.11 µM | T47D 17.4 µM | SNB-19 3.15 µM | LOX IMVI 28.4 µM | MOLT-4 8.53 µM | 786-0 10.2 µM | ACHN 38.4 µM | UACC-62 12.3 µM | HCT-116 15.1 µM | A549 18.3 µM | M14 15.2 µM | K562 16.6 µM

C=C1OC(c2ccccc2NC)=NC12CCCCC2
inactive: CAKI-1 > 100 µM | OVCAR-4 > 100 µM | TK-10 > 100 µM | RXF 393 > 100 µM | BT-549 > 100 µM | CCRF-CEM > 100 µM | NCI-H23 > 100 µM | IGROV-1 > 100 µM | T47D > 100 µM | SNB-19 > 100 µM | LOX IMVI > 100 µM | MOLT-4 > 100 µM | 786-0 > 100 µM | ACHN > 100 µM | UACC-62 > 100 µM | HCT-116 > 100 µM | A549 > 100 µM | M14 > 100 µM | K562 > 100 µM

COCCOC(=O)NCn1cc(-c2ccccc2)nn1
inactive: CAKI-1 > 100 µM | OVCAR-4 > 100 µM | TK-10 > 100 µM | BT-549 > 100 µM | CCRF-CEM > 100 µM | NCI-H23 > 100 µM | IGROV-1 > 100 µM | SNB-19 > 100 µM | LOX IMVI > 100 µM | MOLT-4 > 100 µM | 786-0 > 100 µM | ACHN > 100 µM | HCT-116 > 100 µM | A549 > 100 µM | M14 > 100 µM | SR > 100 µM | K562 > 100 µM

Cc1c(N/C=C(\C#N)C(=O)c2ccc(Cl)cc2)c(=O)n(-c2ccccc2)n1C
inactive: CAKI-1 > 100 µM | OVCAR-4 > 100 µM | TK-10 32.9 µM | RXF 393 > 100 µM | BT-549 46.6 µM | CCRF-CEM 38.9 µM | NCI-H23 > 100 µM | IGROV-1 96.8 µM | SNB-19 > 100 µM | LOX IMVI > 100 µM | 786-0 > 100 µM | UACC-62 59.3 µM | HCT-116 80.7 µM | A549 > 100 µM | M14 > 100 µM | K562 97.9 µM

N#Cc1c2ccc([N+](=O)[O-])cc2c(=O)n2c1sc1ccc(C(F)(F)F)cc12
inactive: CAKI-1 > 100 µM | OVCAR-4 > 100 µM | TK-10 > 100 µM | RXF 393 > 100 µM | BT-549 > 100 µM | NCI-H23 > 100 µM | IGROV-1 > 100 µM | T47D > 100 µM | SNB-19 > 100 µM | LOX IMVI > 100 µM | MOLT-4 > 100 µM | 786-0 > 100 µM | ACHN > 100 µM | HCT-116 > 100 µM | A549 > 100 µM | M14 > 100 µM | K562 > 100 µM

Cc1cccc(/C=N/NC(=S)N2CCCCCC2)n1
active: CAKI-1 0.369 µM | RXF 393 0.515 µM | BT-549 0.512 µM | CCRF-CEM < 0.01 µM | NCI-H23 0.299 µM | IGROV-1 < 0.0399 µM | T47D < 0.01 µM | SNB-19 0.543 µM | LOX IMVI 0.0989 µM | MOLT-4 < 0.01 µM | 786-0 0.0724 µM | ACHN 0.142 µM | UACC-62 0.163 µM | HCT-116 < 0.01 µM | A549 0.111 µM | M14 < 0.0271 µM | K562 < 0.01 µM

O=C(c1ccco1)N1CCCN(C(=O)c2ccco2)C1=S
inactive: CAKI-1 > 100 µM | TK-10 > 100 µM | RXF 393 39.6 µM | BT-549 > 100 µM | CCRF-CEM > 100 µM | NCI-H23 > 100 µM | IGROV-1 41.6 µM | T47D 7.35 µM | SNB-19 > 100 µM | LOX IMVI > 100 µM | MOLT-4 > 100 µM | 786-0 > 100 µM | ACHN > 100 µM | UACC-62 > 100 µM | HCT-116 > 100 µM | M14 > 100 µM | K562 > 100 µM
